Literature values as cited in patent US20220289809A1, “USE OF RELAXIN TO TREAT ATRIAL FIBRILLATION” (University of Pittsburgh - Of the Commonwealth System of …, priority 2012, published 2022).

System: CHF canine model

SMILES: Cc1ccc(=O)n(-c2ccccc2)c1 [Pirfenidone]
- atrial CV: did not generate a significantly greater increase in atrial CV
- fibrosis and AF: reverse fibrosis and attenuate AF
